What was measured:
[1] = target: T1, catalytic domain of Human PARP (Homo sapiens, UniProt P09874); experiment: Biacore surface plasmon resonance affinity assay (dissociation constant KD); assay type: binding; conditions: pKD=-log(KD), KD in molar concentration; Biacore T100, 25° C.
T1 construct: The catalytic domain of Human PARP was cloned and prepared; made in house
Experimental: Dissociation Constant (KD) from Surface Plasmon Resonance
The catalytic domain of Human PARP was cloned and prepared as described in Kinoshita, T.; Nakanishi, I.; Warizaya, M.; Iwashita, A.; Kido, Y.; Hattori, K. and Fujii, T. 2006 FEBS Letters 556, 43-46. Purified enzyme was stored at −80° C. in 25 mM Tris(hydroxymethyl)aminomethane (Tris) pH 7.4, 150 mM NaCl, 2 mM dithiothreitol (DTT) at a concentration of 6 mg/ml.
Biacore affinity assays for test compounds were conducted on a Biacore T100 (GE Healthcare) as follows. A Series S Sensor Chip CM5 (part number BR-1006-68, GE Healthcare) was activated for amide coupling with an Amine Coupling Kit (part number BR-1000-50, GE Healthcare) as described by the manufacturer. The mobile phase buffer consisted of Biacore buffer HBS-P (part number BR-1003-68, GE Healthcare) supplemented with 1% v/v dimethylsulfoxide (DMSO), 0.5 mM Tris(2-carboxyethyl)phosphine hydrochloride (TCEP), and 5 mM MgCl2. Enzyme samples (2 μl/6 mg/ml) stored at −80° C. were diluted to 0.080 mg/ml with 10 mM 4-morpholineethanesulfonic acid (MES) pH 6.5 and then mounted on the activated Biacore CM5 chip at a flow rate of 10 μl/min for 240 seconds. When successfully mounted, a signal of approximately 8,000 reflective units was observed. Test compounds were diluted 9 times 2-fold serially in mobile phase buffer (listed above) at 1% v/v DMSO final to generate a concentration gradient bracketing their anticipated KDs. Biacore mounted PARP was given a 1 minute exposure (association phase) to various concentrations of test compounds to observe a steady state equilibrium or an on rate. The exposure was followed with a dissociation phase of 5 minutes. The association and dissociation phases were at a flow rate of 50 μl/min and a temperature of 25° C.
Parameters Rmax (response at saturation) and KD (binding constant) were calculated through a nonlinear least squares fitting of the equation to the data by use of the Biacore T100 analysis software.
Parameter optimization was through a nonlinear least squares analysis of the association phase Response=Rmax*(1−exp(−(kon[cmpd]+koff)*t)) and dissociation phase Response=[…] by use of the Biacore T100 analysis software. The binding constant KD was calculated from the definition KD=koff/kon

Jurkat cell line = experiment: PARP cellular chemopotentiation assay (MTS cell viability with and without TMZ); assay type: cell-based; conditions: ratio of EC50 for inhibition of cell viability without and with 100 μM TMZ; Jurkat cells, 96 hours of treatment
In short: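 Jurkat cells, 10,000/well, pre-cultured 24 h, then treated 96 h with serial compound dilutions (0.5% DMSO) with or without 100 μM TMZ. Viability by MTS conversion (OD490), normalized to DMSO controls; EC50 from curve fits, PF50 = EC50 without TMZ / EC50 with TMZ.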

PARP = target: T2, PARP (Homo sapiens, UniProt P09874); experiment: PARP ELISA colorimetric assay of inhibition of PARP catalytic activity (IC50); assay type: biochemical; conditions: pIC50=-log(IC50), IC50 in molar concentration; ELISA-based PARP kit, 10 minutes of catalysis
T2 construct: purchased Trevigen 4684-096-01 (enzyme); kit 4684-096-K HT
T2 sequence (P09874 whole entry): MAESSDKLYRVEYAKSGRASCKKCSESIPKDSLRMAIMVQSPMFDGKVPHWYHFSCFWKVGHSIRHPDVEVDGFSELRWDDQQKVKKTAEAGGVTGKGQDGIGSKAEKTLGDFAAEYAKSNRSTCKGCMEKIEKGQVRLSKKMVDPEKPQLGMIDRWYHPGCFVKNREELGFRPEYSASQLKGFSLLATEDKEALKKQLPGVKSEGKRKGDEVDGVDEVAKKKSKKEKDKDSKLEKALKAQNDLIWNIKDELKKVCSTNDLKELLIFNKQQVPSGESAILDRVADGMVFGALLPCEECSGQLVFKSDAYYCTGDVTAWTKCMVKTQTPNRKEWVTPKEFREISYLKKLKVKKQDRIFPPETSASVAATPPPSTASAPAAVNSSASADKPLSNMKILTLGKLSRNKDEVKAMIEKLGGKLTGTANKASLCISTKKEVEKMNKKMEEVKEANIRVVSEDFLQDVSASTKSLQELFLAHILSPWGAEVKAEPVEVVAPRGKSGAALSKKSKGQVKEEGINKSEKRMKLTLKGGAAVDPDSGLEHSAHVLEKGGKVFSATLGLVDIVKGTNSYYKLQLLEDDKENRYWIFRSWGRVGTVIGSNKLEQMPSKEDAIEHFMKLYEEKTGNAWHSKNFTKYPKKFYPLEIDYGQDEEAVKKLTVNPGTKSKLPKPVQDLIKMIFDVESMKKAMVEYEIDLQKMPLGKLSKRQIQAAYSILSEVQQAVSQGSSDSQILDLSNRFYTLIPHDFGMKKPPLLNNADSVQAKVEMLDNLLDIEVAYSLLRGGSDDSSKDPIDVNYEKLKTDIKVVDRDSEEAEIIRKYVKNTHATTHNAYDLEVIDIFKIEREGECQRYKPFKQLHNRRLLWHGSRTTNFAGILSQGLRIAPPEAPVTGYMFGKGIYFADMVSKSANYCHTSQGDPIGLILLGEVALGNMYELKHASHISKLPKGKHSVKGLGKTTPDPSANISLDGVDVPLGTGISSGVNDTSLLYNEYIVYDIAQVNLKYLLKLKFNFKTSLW
In short: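 Human PARP was added as a 0.1 nM solution to histone-coated wells with compound for a 10-min ambient preincubation. The reaction was started with 100 μM NAD+ solution plus activated DNA and run 10 min. PAR formation was detected by anti-PAR ELISA, colorimetric. IC50 came from a 12-point, 3-fold gradient fitted by nonlinear least squares to a Hill equation.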

T1 sequence (P09874 788-1014 limits assumed): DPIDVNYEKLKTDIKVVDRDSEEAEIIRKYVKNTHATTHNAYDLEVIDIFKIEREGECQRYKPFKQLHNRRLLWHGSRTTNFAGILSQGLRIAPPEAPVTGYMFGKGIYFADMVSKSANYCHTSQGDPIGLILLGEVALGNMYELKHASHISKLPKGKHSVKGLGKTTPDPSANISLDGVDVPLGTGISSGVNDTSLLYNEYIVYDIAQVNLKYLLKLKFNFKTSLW

Structure (SMILES)	Kd [1]	IC50 (PARP)	PF50 (Jurkat cell line)
C[C@H]1C(=O)Nc2cc(CN3CCN(c4cccc(Cl)c4)CC3)cnc2N1C [Compound 58, (S)-7-((4-(3-chlorophenyl)piperazin-1-yl)methyl)-3,4-dimethyl-3,4-dihydropyrido[3,2-b]pyrazin-2(1H)-one]	≥ 1000 nM		
O=C1Nc2cc(CN3CCC(c4ccc(Cl)cc4)CC3)cnc2N2CCC[C@@H]12 [Compound 3, (S)-3-((4-(4-chlorophenyl)piperidin-1-yl)methyl)-6a,7,8,9-tetrahydropyrido[3,2-e]pyrrolo[1,2-a]pyrazin-6(5H)-one]	31.6 to 794 nM		>10
C[C@H]1C(=O)Nc2cc(CN3CCN(c4ccc(Cl)cc4)CC3)cnc2N1C [Compound 59, (S)-7-((4-(4-chlorophenyl)piperazin-1-yl)methyl)-3,4-dimethyl-3,4-dihydropyrido[3,2-b]pyrazin-2(1H)-one]	< 31.6 nM		≧0
C[C@H]1C(=O)Nc2cc(CN3CC=C(c4ccccc4)CC3)cnc2N1C [Compound 57, (S)-3,4-dimethyl-7-((4-phenyl-5,6-dihydropyridin-1(2H)-yl)methyl)-3,4-dihydropyrido[3,2-b]pyrazin-2(1H)-one]	< 31.6 nM		≧0
C[C@H]1C(=O)Nc2cc(CN3CCC(c4ccccc4)CC3)cnc2N1C [Compound 54, (S)-3,4-dimethyl-7-((4-phenylpiperidin-1-yl)methyl)-3,4-dihydropyrido[3,2-b]pyrazin-2(1H)-one]	≥ 1000 nM		
O=C1Nc2cc(CN3CCN(c4ccc(Cl)cc4)CC3)cnc2N2CCCC[C@@H]12 [Compound 69, (S)-3-((4-(4-chlorophenyl)piperazin-1-yl)methyl)-7,8,9,10-tetrahydro-5H-dipyrido[1,2-a:3′,2′-e]pyrazin-6(6aH)-one]		≤ 12.6 nM	>10
CNC(=O)c1ccc(N2CCN(Cc3cnc4c(c3)NC(=O)[C@@H]3CCCN43)CC2)cc1 [Compound 11, (S)—N-methyl-4-(4-((6-oxo-5,6,6a,7,8,9-hexahydropyrido[3,2-e]pyrrolo[1,2-a]pyrazin-3-yl)methyl)piperazin-1-yl)benzamide]		15.8 to 39.8 nM	>10
CC(C)NC(=O)c1ccc(N2CCN(Cc3cnc4c(c3)NC(=O)[C@@H]3CCCN43)CC2)cc1 [Compound 12, (S)—N-isopropyl-4-(4-((6-oxo-5,6,6a,7,8,9-hexahydropyrido[3,2-e]pyrrolo[1,2-a]pyrazin-3-yl)methyl)piperazin-1-yl)benzamide]		15.8 to 39.8 nM	>10
O=C(NC1CC1)c1ccc(N2CCN(Cc3cnc4c(c3)NC(=O)[C@@H]3CCCCN43)CC2)cc1 [Compound 75, (S)—N-cyclopropyl-4-(4-((6-oxo-6,6a,7,8,9,10-hexahydro-5H-dipyrido[1,2-a:3′,2′-e]pyrazin-3-yl)methyl)piperazin-1-yl)benzamide]		15.8 to 39.8 nM	>500
CC(C)N1c2ncc(CN3CCN(c4ccc(Cl)cc4)CC3)cc2NC(=O)[C@@H]1C [Compound 61, (S)-7-((4-(4-chlorophenyl)piperazin-1-yl)methyl)-4-isopropyl-3-methyl-3,4-dihydropyrido[3,2-b]pyrazin-2(1H)-one]	≥ 1000 nM		
CC(C)N1CC(=O)Nc2cc(CN3CC=C(c4ccc(Cl)cc4)CC3)cnc21 [Compound 94, 7-((4-(4-chlorophenyl)-5,6-dihydropyridin-1(2H)-yl)methyl)-4-isopropyl-3,4-dihydropyrido[2,3-b]pyrazin-2(1H)-one]		≥ 50.1 nM	≧0
CC(C)N1c2ncc(CN3CC=C(c4ccc(Cl)cc4)CC3)cc2NC(=O)[C@@H]1C [Compound 60, (S)-7-((4-(4-chlorophenyl)-5,6-dihydropyridin-1(2H)-yl)methyl)-4-isopropyl-3-methyl-3,4-dihydropyrido[3,2-b]pyrazin-2(1H)-one]	≥ 1000 nM		
Cc1cccc(N2CCN(Cc3cnc4c(c3)NC(=O)[C@@H]3CCCN43)CC2)c1 [Compound 29, (S)-3-((4-m-tolylpiperazin-1-yl)methyl)-6a,7,8,9-tetrahydropyrido[3,2-e]pyrrolo[1,2-a]pyrazin-6(5H)-one]		≥ 50.1 nM	>500
O=C1Nc2cc(CN3CCN(c4ccc(F)cc4)CC3)cnc2N2CCC[C@@H]12 [Compound 24, (S)-3-((4-(4-fluorophenyl)piperazin-1-yl)methyl)-6a,7,8,9-tetrahydropyrido[3,2-e]pyrrolo[1,2-a]pyrazin-6(5H)-one]		15.8 to 39.8 nM	>5000

Second part, led by results:

Kd [1]	IC50 (PARP)	Structure (SMILES)	PF50 (Jurkat cell line)
	≥ 50.1 nM	CNC(=O)c1ccc(N2CCN(Cc3cnc4c(c3)NC(=O)[C@@H]3CCCCN43)CC2)c(C)c1 [Compound 113, (S)—N,3-dimethyl-4-(4-((6-oxo-6,6a,7,8,9,10-hexahydro-5H-dipyrido[1,2-a:3′,2′-e]pyrazin-3-yl)methyl)piperazin-1-yl)benzamide]	>2000
	≥ 50.1 nM	CNS(=O)(=O)c1ccc(N2CCN(Cc3cnc4c(c3)NC(=O)[C@@H]3CCCN43)CC2)cc1 [Compound 128, (S)—N-methyl-4-(4-((6-oxo-5,6,6a,7,8,9-hexahydropyrido[3,2-e]pyrrolo[1,2-a]pyrazin-3-yl)methyl)piperazin-1-yl)benzenesulfonamide]	≧0
	≤ 12.6 nM	O=C(NC1CC1)c1ccc(N2CCN(Cc3cnc4c(c3)NC(=O)[C@@H]3CCCN43)CC2)c(F)c1 [Compound 132, (S)—N-cyclopropyl-3-fluoro-4-(4-((6-oxo-5,6,6a,7,8,9-hexahydropyrido[3,2-e]pyrrolo[1,2-a]pyrazin-3-yl)methyl)piperazin-1-yl)benzamide]	>2000
	≥ 50.1 nM	O=C1CC2CCCN2c2ncc(CN3CCN(c4ccc(Cl)cc4)CC3)cc2N1 (stereo not drawn) [Compound 104, 3-((4-(4-chlorophenyl)piperazin-1-yl)methyl)-7a,8,9,10-tetrahydro-5H-pyrido[3,2-b]pyrrolo[1,2-d][1,4]diazepin-6(7H)-one]	≧0
	15.8 to 39.8 nM	CCNC(=O)c1ccc(N2CCN(Cc3cnc4c(c3)NC(=O)[C@@H]3CCCN43)CC2)c(F)c1 [Compound 126, (S)—N-ethyl-3-fluoro-4-(4-((6-oxo-5,6,6a,7,8,9-hexahydropyrido[3,2-e]pyrrolo[1,2-a]pyrazin-3-yl)methyl)piperazin-1-yl)benzamide]	>5000
	≤ 12.6 nM	CNC(=O)c1ccc(N2CCN(Cc3cnc4c(c3)NC(=O)[C@@H]3CCCN43)CC2)c(F)c1 [Compound 131, (S)-3-fluoro-N-methyl-4-(4-((6-oxo-5,6,6a,7,8,9-hexahydropyrido[3,2-e]pyrrolo[1,2-a]pyrazin-3-yl)methyl)piperazin-1-yl)benzamide]	>500
	≥ 50.1 nM	CCNC(=O)c1ccc(N2CCN(Cc3cnc4c(c3)NC(=O)[C@@H]3CCCCN43)CC2)c(C)c1 [Compound 114, (S)—N-ethyl-3-methyl-4-(4-((6-oxo-6,6a,7,8,9,10-hexahydro-5H-dipyrido[1,2-a:3′,2′-e]pyrazin-3-yl)methyl)piperazin-1-yl)benzamide]	>2000
	≥ 50.1 nM	CC1CN(c2ccccn2)CCN1Cc1cnc2c(c1)NC(=O)[C@@H]1CCCN21 (stereo partly drawn) [Compound 120, (6aS)-3-((2-methyl-4-(pyridin-2-yl)piperazin-1-yl)methyl)-6a,7,8,9-tetrahydropyrido[3,2-e]pyrrolo[1,2-a]pyrazin-6(5H)-one]	≧0
	≤ 12.6 nM	CNC(=O)c1ccc(N2CCN(Cc3cnc4c(c3)NC(=O)[C@@H]3CCCCN43)CC2)c(F)c1 [Compound 112, (S)-3-fluoro-N-methyl-4-(4-((6-oxo-6,6a,7,8,9,10-hexahydro-5H-dipyrido[1,2-a:3′,2′-e]pyrazin-3-yl)methyl)piperazin-1-yl)benzamide]	>10

From patent US9187497B2, “Substituted pyrido[3,2-e]pyrrolo[1,2-a]pyrazines as inhibitors of poly(ADP-ribose)polymerase (PARP)” (Takeda Phamaceutical Company Limited, priority 2009, dated 2015)
